Calls of active or inactive are those of the source. No cut-off for these calls is given here.
Tested on: Staphylococcus aureus
Experiment: Tested for antibacterial activity against Staphylococcus aureus by disc-diffusion antibacterial assay; Inactive
Type: functional, organism-based

## C[C@@H](O)[C@H]1C(=O)N2[C@@H](C(=O)O)C(SCCN)=C[C@H]12
  inhibition: inactive

Reference: ChEMBL document CHEMBL1121842, “Preparation and antibacterial activity of delta 1-thienamycin” (1981)
